In ChEMBL document CHEMBL4043112, “Recent synthetic and medicinal perspectives of tryptanthrin” (Bioorg Med Chem, 2017):
Values after ≈ are worked out from the molar mass of the structure shown. Where a name gives a salt, the structure may show the parent alone.

Experiments:
Malassezia furfur = assay: Antifungal activity against Malassezia furfur after 2 to 4 days by agar plate dilution method; format: functional
Staphylococcus aureus = assay: Antibacterial activity against methicillin resistant Staphylococcus aureus after 24 hrs by agar plate dilution method; format: functional
K562 [1] = assay: Antiproliferative activity against human K562 cells after 24 hrs; format: functional, cell-based; conditions: K562, 24 h
MOLT-4 [2] = assay: Antiproliferative activity against human MOLT4 cells after 24 hrs; format: functional, cell-based; conditions: MOLT-4, 24 h
HL-60 [3] = assay: Antiproliferative activity against human HL60 cells after 24 hrs; format: functional, cell-based; conditions: HL-60, 24 h
HL-60 [4] = assay: Antiproliferative activity against human HL60 cells after 48 hrs; format: functional, cell-based
MOLT-4 [5] = assay: Antiproliferative activity against human MOLT4 cells after 48 hrs; format: functional, cell-based; conditions: MOLT-4, 48 h
[6] = biological target: Indoleamine 2,3-dioxygenase 1 (Homo sapiens, UniProt P14902); assay: Inhibition of IDO-1 (unknown origin)
K562 [7] = assay: Antiproliferative activity against human K562 cells after 48 hrs; format: functional, cell-based; conditions: K562, 48 h
K562 [8] = assay: Antiproliferative activity against human K562 cells after 48 hrs by MTT staining-based method; format: functional, cell-based; conditions: K562, 48 h
K562 [9] = assay: Induction of apoptosis in human K562 cells assessed as late apoptotic cells at 6.25 ug/ml by Annexin V/propidium iodide staining-based flow cytometry; format: functional
K562 [10] = assay: Induction of apoptosis in human K562 cells assessed as late apoptotic cells at 12.5 ug/ml by Annexin V/propidium iodide staining-based flow cytometry; format: functional
K562 [11] = assay: Induction of apoptosis in human K562 cells assessed as late apoptotic cells at 25 ug/ml by Annexin V/propidium iodide staining-based flow cytometry; format: functional
[12] = Inhibition of PMA-induced HGF production in HDF at 0.1 mg/ml after 24 hrs by ELISA; format: functional; conditions: Homo sapiens
[13] = Inhibition of EGF-induced HGF production in HDF at 2 mg/ml after 72 hrs by ELISA; format: functional; conditions: Homo sapiens
MCF7 [14] = assay: Cytotoxicity against human wild-type MCF7 cells after 72 hrs; format: functional, cell-based; conditions: MCF7, 72 h
NCI/ADR-RES [15] = assay: Cytotoxicity against human MCF7/ADR cells after 72 hrs; format: functional, cell-based
[16] = biological target: T1, Polyunsaturated fatty acid 5-lipoxygenase (Homo sapiens, UniProt P09917); assay: Inhibition of 5-LO in LPS-stimulated human neutrophils by HPLC analysis
T1 sequence (P09917 whole entry): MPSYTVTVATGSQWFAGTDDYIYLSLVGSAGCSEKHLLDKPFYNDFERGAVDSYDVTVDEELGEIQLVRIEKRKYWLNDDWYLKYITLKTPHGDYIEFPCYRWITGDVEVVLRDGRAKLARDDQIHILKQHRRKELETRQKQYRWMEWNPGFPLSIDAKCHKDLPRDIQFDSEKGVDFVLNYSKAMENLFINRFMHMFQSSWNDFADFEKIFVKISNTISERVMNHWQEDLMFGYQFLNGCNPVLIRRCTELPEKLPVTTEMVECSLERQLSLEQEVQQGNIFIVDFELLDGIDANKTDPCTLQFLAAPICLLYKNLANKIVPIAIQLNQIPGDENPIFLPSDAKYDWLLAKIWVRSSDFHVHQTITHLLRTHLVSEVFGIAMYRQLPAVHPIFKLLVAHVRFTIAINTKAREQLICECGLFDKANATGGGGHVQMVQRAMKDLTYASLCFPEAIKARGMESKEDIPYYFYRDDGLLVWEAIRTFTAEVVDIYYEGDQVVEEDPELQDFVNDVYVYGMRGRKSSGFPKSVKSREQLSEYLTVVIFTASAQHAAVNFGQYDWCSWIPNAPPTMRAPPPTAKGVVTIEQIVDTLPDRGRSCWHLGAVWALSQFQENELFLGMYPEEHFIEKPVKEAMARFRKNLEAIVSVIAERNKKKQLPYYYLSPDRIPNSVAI

[17] = biological target: T1, Polyunsaturated fatty acid 5-lipoxygenase; assay: Inhibition of 5-LO in fMLP-stimulated human neutrophils by HPLC analysis
Rattus norvegicus [18] = assay: Anti-inflammatory activity in Wistar Han rat assessed as reduction of carrageenan-induced pleural LTB4 levels at 10 mg/kg, po administered 1 hr prior to carrageenan challenge by HPLC analysis; format: functional
Rattus norvegicus [19] = assay: Anti-inflammatory activity in Wistar Han rat assessed as reduction of carrageenan-induced PGE2 levels at 10 mg/kg, po administered 1 hr prior to carrageenan challenge by radioimmunoassay; format: functional
Rattus norvegicus [20] = assay: Anti-inflammatory activity in Wistar Han rat assessed as reduction in carrageenan-induced increase in infiltrating cells at 10 mg/kg, po administered 1 hr prior to carrageenan challenge by vital trypan blue staining-based microscopic method; format: functional
[21] = Antiproliferative activity against spleen cells from SBP-immunized mouse assessed as fluorescence intensity at 5 uM after 3 days by Alamar blue dye-based method (reference value: 2781 +/- 59I); format: functional, Spleen cell
[22] = Antiproliferative activity against spleen cells from SBP-immunized mouse assessed as fluorescence intensity at 10 uM after 3 days by Alamar blue dye-based method (reference value: 2781 +/- 59I); format: functional, Spleen cell
Rattus norvegicus [23] = assay: Anti-inflammatory activity in Wistar Han rat assessed as reduction in carrageenan-induced exudate volume at 10 mg/kg, po administered 1 hr prior to carrageenan challenge; format: functional
[24] = biological target: ATP-dependent translocase ABCB1 (Homo sapiens, UniProt P08183); assay: Inhibition of MDR1 in human MCF7/ADR cells assessed as potentiation of verapamil-induced cytotoxicity by measuring cell growth (reference value: 78.2%); format: cell-based; design: scale not given: the % may be the effect or the level left
Homo sapiens [25] = species on record: Homo sapiens; assay: Inhibition of human DNA topoisomerase 2 ATPase activity at 200 mM by Topo-2 ATPase assay
Homo sapiens [26] = species on record: Homo sapiens; assay: Inhibition of human DNA topoisomerase 2 ATPase activity at 400 mM by Topo-2 ATPase assay
Homo sapiens [27] = species on record: Homo sapiens; assay: Inhibition of human DNA topoisomerase 2 ATPase activity at 300 mM by Topo-2 ATPase assay
NCI/ADR-RES [28] = assay: Cytotoxicity against human MCF7/ADR cells assessed as inhibition of cell proliferation at 10^-6 M after 5 days by MTT assay; format: functional; conditions: 120 h
MCF7 [29] = assay: Cytotoxicity against human wild-type MCF7 cells assessed as cell growth at 3 mM after 72 hrs relative to control; format: functional; conditions: MCF7, 72 h, read-out: Activity
NCI/ADR-RES [30] = assay: Cytotoxicity against human MCF7/ADR cells assessed as cell growth at 3 mM after 72 hrs relative to control; format: functional; conditions: read-out: Activity
Homo sapiens [31] = species on record: Homo sapiens; assay: Inhibition of human DNA topoisomerase 2-mediated decatenation of kinetoplast DNA at […] by kinetoplast DNA decatenation assay

Indoleamine 2,3-dioxygenase 1, sequence (P14902 whole entry): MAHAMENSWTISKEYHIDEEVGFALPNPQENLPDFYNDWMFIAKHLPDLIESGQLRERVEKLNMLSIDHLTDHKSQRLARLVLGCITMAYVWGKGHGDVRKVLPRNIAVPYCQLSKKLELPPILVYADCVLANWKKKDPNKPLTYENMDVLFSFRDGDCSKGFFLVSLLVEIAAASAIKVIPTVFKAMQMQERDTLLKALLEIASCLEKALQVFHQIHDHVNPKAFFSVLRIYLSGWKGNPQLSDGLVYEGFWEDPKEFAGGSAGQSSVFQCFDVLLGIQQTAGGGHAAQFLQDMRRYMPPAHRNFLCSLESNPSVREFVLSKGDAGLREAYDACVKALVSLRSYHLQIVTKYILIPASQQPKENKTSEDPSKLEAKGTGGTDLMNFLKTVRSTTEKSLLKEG
ATP-dependent translocase ABCB1, sequence (P08183 whole entry): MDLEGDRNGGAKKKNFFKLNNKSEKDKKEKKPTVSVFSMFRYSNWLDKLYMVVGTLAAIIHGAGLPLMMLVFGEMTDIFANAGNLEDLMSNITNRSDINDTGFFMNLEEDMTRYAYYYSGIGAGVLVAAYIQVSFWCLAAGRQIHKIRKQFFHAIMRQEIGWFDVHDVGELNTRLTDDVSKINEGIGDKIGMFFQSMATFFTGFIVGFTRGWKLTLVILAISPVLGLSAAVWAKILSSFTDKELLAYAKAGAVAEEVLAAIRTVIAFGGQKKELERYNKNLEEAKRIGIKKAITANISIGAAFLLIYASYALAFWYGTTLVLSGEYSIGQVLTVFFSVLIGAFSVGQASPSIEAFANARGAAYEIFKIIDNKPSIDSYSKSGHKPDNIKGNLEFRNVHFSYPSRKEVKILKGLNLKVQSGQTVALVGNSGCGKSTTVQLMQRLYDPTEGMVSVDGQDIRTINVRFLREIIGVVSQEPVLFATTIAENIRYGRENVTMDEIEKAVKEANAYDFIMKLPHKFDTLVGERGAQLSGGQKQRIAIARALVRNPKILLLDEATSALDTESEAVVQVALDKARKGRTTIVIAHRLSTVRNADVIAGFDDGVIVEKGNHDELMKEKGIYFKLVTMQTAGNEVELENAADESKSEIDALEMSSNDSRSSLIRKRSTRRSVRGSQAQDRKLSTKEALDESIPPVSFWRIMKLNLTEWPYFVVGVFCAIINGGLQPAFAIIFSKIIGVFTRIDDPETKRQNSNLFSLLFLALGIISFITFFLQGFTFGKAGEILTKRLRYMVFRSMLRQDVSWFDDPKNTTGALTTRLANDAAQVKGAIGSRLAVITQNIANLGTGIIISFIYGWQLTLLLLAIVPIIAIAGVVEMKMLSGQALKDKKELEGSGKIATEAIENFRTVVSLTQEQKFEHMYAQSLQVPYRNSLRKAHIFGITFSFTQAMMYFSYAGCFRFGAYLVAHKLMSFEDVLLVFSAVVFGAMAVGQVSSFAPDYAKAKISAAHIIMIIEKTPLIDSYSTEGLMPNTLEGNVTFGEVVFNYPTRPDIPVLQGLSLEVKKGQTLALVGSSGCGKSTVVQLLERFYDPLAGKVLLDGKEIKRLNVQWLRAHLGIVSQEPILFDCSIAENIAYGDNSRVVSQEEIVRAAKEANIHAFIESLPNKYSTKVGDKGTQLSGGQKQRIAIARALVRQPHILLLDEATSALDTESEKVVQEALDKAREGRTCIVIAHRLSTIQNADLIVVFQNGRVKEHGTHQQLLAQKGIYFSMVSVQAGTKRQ

O=C1c2ccccc2-n2c1nc1ccc(Cl)cc1c2=O
MIC (Malassezia furfur): 4 µg/mL (≈ 14.1 µM)
MIC (Staphylococcus aureus): 0.1 µg/mL (≈ 0.354 µM)

Nc1ccc2nc3n(c(=O)c2c1)-c1ccccc1C3=O
MIC (Malassezia furfur): 20 µg/mL (≈ 76 µM)
MIC (Staphylococcus aureus): 2 µg/mL (≈ 7.6 µM)

O=C1c2ccccc2-n2c1nc1ccccc1c2=O [TRYPTANTHRIN]
IC50 (K562 [1]): 15 µM
IC50 (MOLT-4 [2]): 10 µM
IC50 (HL-60 [3]): 5 µM
IC50 (HL-60 [4]): 2 to 20000 µM
IC50 (MOLT-4 [5]): 8 µM
IC50 [6]: 499 µM
IC50 (K562 [7]): 5 µM
IC50 (K562 [8]): 8.8 µg/mL (≈ 35.4 µM)
Activity (K562 [9]): 21.9%
Activity (K562 [10]): 33.4%
Activity (K562 [11]): 52.2%
inhibition at 100 µg/mL [12]: 70%
inhibition at 2000 µg/mL [13]: 70%
IC50 (MCF7 [14]): 0.58 to 15.5 µM
IC50 (NCI/ADR-RES [15]): 0.03 to 10 µM
IC50 [16]: 0.2 to 0.6 µM
IC50 [17]: 0.2 to 0.6 µM
inhibition in vivo at 10 mg/kg (Rattus norvegicus [18]): 46%
inhibition in vivo at 10 mg/kg (Rattus norvegicus [19]): 42%
inhibition in vivo at 10 mg/kg (Rattus norvegicus [20]): 41%
Flu intensity [21]: 2826
Flu intensity [22]: 2740
MIC (Malassezia furfur): 4 µg/mL (≈ 16.1 µM)
MIC (Staphylococcus aureus): 0.5 µg/mL (≈ 2.01 µM)
inhibition in vivo at 10 mg/kg (Rattus norvegicus [23]): 80%

COc1ccc2c(c1)C(=O)c1nc3ccccc3c(=O)n1-2
MIC (Malassezia furfur): > 120 µg/mL
MIC (Staphylococcus aureus): 2.5 µg/mL (≈ 8.98 µM)

O=C1c2cc(Br)ccc2-n2c1nc1ccccc1c2=O
MIC (Malassezia furfur): 2.5 µg/mL (≈ 7.64 µM)
MIC (Staphylococcus aureus): 0.1 µg/mL (≈ 0.306 µM)

COc1ccc(CCN(C)CCCC(C#N)(c2ccc(OC)c(OC)c2)C(C)C)cc1OC (configuration not stated)
Activity [24]: 18.1%

O=C1c2ccccc2-n2c1nc1ccc(Br)cc1c2=O
MIC (Malassezia furfur): 4 µg/mL (≈ 12.2 µM)
MIC (Staphylococcus aureus): 0.3 µg/mL (≈ 0.917 µM)

CO[C@@H]1[C@@H](OC(N)=O)[C@@H](O)[C@H](Oc2ccc3c(O)c(NC(=O)c4ccc(O)c(CC=C(C)C)c4)c(=O)oc3c2C)OC1(C)C
inhibition (Homo sapiens [25]): 38.5%
inhibition (Homo sapiens [26]): 60.2%
inhibition (Homo sapiens [27]): 45.9%

O=C1c2ccccc2-n2c1nc1ccc([N+](=O)[O-])cc1c2=O
MIC (Malassezia furfur): > 160 µg/mL
MIC (Staphylococcus aureus): > 100 µg/mL

COc1cccc2c1C(=O)c1c(O)c3c(c(O)c1C2=O)C[C@@](O)(C(=O)CO)C[C@@H]3O[C@H]1C[C@H](N)[C@H](O)[C@H](C)O1 [DOXORUBICIN]
inhibition at 1 µM (NCI/ADR-RES [28]): 20%

O=C1c2cc(F)ccc2-n2c1nc1ccccc1c2=O
MIC (Malassezia furfur): 1 µg/mL (≈ 3.76 µM)
MIC (Staphylococcus aureus): 0.1 µg/mL (≈ 0.376 µM)

Cc1ccc2c(c1)C(=O)c1nc3ccccc3c(=O)n1-2
MIC (Malassezia furfur): > 120 µg/mL
MIC (Staphylococcus aureus): 0.5 µg/mL (≈ 1.91 µM)

COc1cccc2c1C(=O)c1c(O)c3c(c(O)c1C2=O)C[C@@](O)(C(=O)CO)C[C@@H]3O[C@H]1C[C@H](N)[C@H](O)[C@H](C)O1 [DOXORUBICIN HYDROCHLORIDE]
IC50 (MCF7 [14]): 0.99 to 2.63 µM
IC50 (NCI/ADR-RES [15]): > 50 µM
growth at 3000 µM (MCF7 [29]): 3.9 to 24.1%
growth at 3000 µM (NCI/ADR-RES [30]): 0.44 to 78.2%

N[C@@H](Cc1c[nH]c2ccccc12)C(=O)O [TRYPTOPHAN]
IC50 [6]: 499 µM

O=C1c2cc3ccccc3cc2-n2c1nc1ccccc1c2=O
inhibition (Homo sapiens [31]): 43.4%
inhibition (Homo sapiens [25]): 30.7%
inhibition (Homo sapiens [26]): 47.2%
IC50 (MCF7 [14]): 0.27 to 12.1 µM
IC50 (NCI/ADR-RES [15]): 0.16 to 9.82 µM
Activity [24]: 59%
